# According to PubChem BioAssay (NCI):
#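 96-well plates; 48 h exposure; 5 concentrations. Endpoints by linear interpolation between flanking doses. Not reached: highest tested concentration assigned. TGI: total growth inhibition.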
# Tests used:
# Assay in all cases: NCI-60 cell line screen, 48 h
# [1] = test system: HL-60(TB) leukemia
# [2] = test system: OVCAR-8 ovarian
# [3] = test system: CAKI-1 renal
# [4] = test system: NCI-H23 lung
# [5] = test system: TK-10 renal
# [6] = test system: MDA-MB-435
# [7] = test system: UACC-257 melanoma
# [8] = test system: OVCAR-5 ovarian
# [9] = test system: A549 NSCLC
# [10] = test system: COLO 205 colon
# [11] = test system: MDA-MB-231 breast
# [12] = test system: UACC-62 melanoma
# [13] = test system: IGROV1 ovarian
# [14] = test system: UO-31 renal
# [15] = test system: T-47D breast
# [16] = test system: SK-MEL-2 melanoma
# [17] = test system: OVCAR-4 ovarian
# [18] = test system: SF-268 CNS
# [19] = test system: MALME-3M melanoma
# [20] = test system: HS 578T breast
Compound,TGI [1] [µM],TGI [2] [µM],TGI [3] [µM],TGI [4] [µM],TGI [5] [µM],TGI [6] [µM],TGI [7] [µM],TGI [8] [µM],TGI [9] [µM],TGI [10] [µM],TGI [11] [µM],TGI [12] [µM],TGI [13] [µM],TGI [14] [µM],TGI [15] [µM],TGI [16] [µM],TGI [17] [µM],TGI [18] [µM],TGI [19] [µM],TGI [20] [µM]
O=c1[nH]c2ccccc2c(O)c1/C=N/C(=S)NCc1ccccc1,> 100,> 100,> 100,> 100,> 100,> 100,> 100,> 100,> 100,> 100,> 100,> 100,> 100,> 100,> 100,> 100,–,–,–,–
O=C1C=C2SC3C[C@@]24CC1[N+]1=c2c4c(c(O)c4c2=C(C=N4)CC1)N3,3.78,4.21,7.99,–,–,–,3.17,3.9,21.2,3.57,–,3.23,6.48,30.3,–,3.35,3.13,2.9,3.3,–
CCn1c(SC(C)C(=O)c2c(C)n(C)n(-c3ccccc3)c2=O)nc2ccccc2c1=O (configuration not stated),> 100,> 100,–,> 100,> 100,–,> 100,> 100,> 100,> 100,–,> 100,> 100,> 100,–,> 100,> 100,> 100,> 100,–
CC(=O)c1ccccc1NCC(=O)Nn1cnc2ccc(S(=O)(=O)Nc3ccccc3C(C)=O)cc2c1=O,> 100,> 100,> 100,> 100,> 100,> 100,> 100,> 100,> 100,> 100,> 100,> 100,> 100,> 100,–,> 100,> 100,> 100,> 100,> 100
O=c1cc(NNc2cccc(F)c2)[nH]c(=O)[nH]1,44.6,–,29.9,> 100,27.2,–,34.8,> 100,> 100,> 100,30.4,> 100,46.7,95.8,31.7,> 100,> 100,> 100,34.9,> 100
CNC(=S)N/N=C(\C(=N/NC(=S)NC)c1ccccn1)c1ccccn1,–,> 100,> 100,> 68.5,> 100,> 100,> 100,> 100,> 100,> 100,> 100,> 100,> 100,> 69.6,–,> 100,> 100,> 63.6,98,99.1
CC1(C)C(CCO)CC1n1cc(I)c(=O)[nH]c1=O (configuration not stated),–,–,> 100,–,> 100,> 100,> 100,> 100,> 100,> 100,> 100,> 100,–,> 100,> 100,> 100,> 100,> 100,–,> 100
COc1ccc2c(c1)C/C(=C\c1cccc3ccccc13)C2=O,> 100,> 100,> 100,24.2,> 100,–,–,> 100,> 100,–,–,> 100,> 100,> 100,–,–,> 100,> 100,–,> 100
CCO[C@@]1(COCc2ccccc2)OC(=O)C[C@@H]1N1C(=O)OC[C@@H]1c1ccccc1,> 100,> 100,76.4,> 100,> 100,> 100,> 100,> 100,> 100,> 100,> 100,> 100,> 100,> 100,> 100,> 100,> 100,> 100,> 100,–
CCN(CC)C(=S)Nc1ccc(-c2cc3ccc(O)cc3oc2=O)cc1,23.2,> 100,> 100,> 100,> 100,> 100,48.4,79.5,> 100,> 100,> 100,> 100,> 100,> 100,–,49.3,–,> 100,69.2,71.6
CCCC(C)n1c(C)nc2c1C(=O)c1ccccc1C2=O (configuration not stated),> 100,> 100,–,36.2,> 100,–,63.1,–,> 100,> 100,–,23.8,> 100,93.3,–,47.1,> 100,> 100,67,–
COc1cc(CNc2cnc3cc(N)ccc3n2)cc(OC)c1OC,39.8,> 100,> 100,> 100,> 100,–,> 100,> 100,> 100,62.2,–,> 100,> 100,> 100,–,2.38,> 100,> 100,> 100,–
O=C(CCCCCCCCC(=O)N1C(=O)CC(=O)N(c2ccccc2)C1=S)N1C(=O)CC(=O)N(c2ccccc2)C1=S,–,> 100,> 100,> 100,> 100,> 100,> 100,> 100,> 100,> 100,> 100,> 100,–,> 100,> 100,> 100,> 100,> 100,> 100,> 100
C[n+]1c(-c2ccc(/C=N/Nc3ccnc(N/N=C/c4ccc(-c5cn6ccsc6[n+]5C)cc4)n3)cc2)cn2ccsc21,–,> 100,66.6,> 100,> 100,40.1,76.2,> 100,91.2,87.9,> 100,> 100,> 100,> 100,–,85.9,> 100,–,> 100,> 100
Cc1nc2c(o1)C(=Nc1ccccc1)c1ccccc1C2=O,66.1,13.4,36.7,5.25,69.9,–,19.5,32.4,38.3,29.7,–,11,40.1,20.6,–,18.9,–,24,12.3,–
O=C1c2ccccc2C(=O)c2c(O)c(NCCCNCCO)cc(O)c21,19.7,23.7,22.4,24.6,22.1,–,–,24.6,23.7,20.8,–,36.5,28.8,19.5,–,33,36.4,23.1,31.2,–
CC1(C)O[C@@H](CCl)C[C@H](C#N)O1,> 100,> 100,> 100,> 100,> 100,–,> 100,> 100,> 100,> 100,–,> 100,> 100,> 100,–,> 100,> 100,> 100,> 100,–
O=C1C=CC(=C(c2ccc(O)cc2)c2ccc(O)cc2)C=C1,13.4,25.2,32.7,21.2,33.4,–,21.7,32.3,53.3,32.4,–,14.5,28,31.1,–,17.7,27.6,29.7,24.9,–
O=S(OC12CC3CC(CC(C3)C1)C2)c1cc(Cl)cc(Cl)c1OCc1ccccc1 (configuration not stated),> 100,–,–,> 100,> 100,–,> 100,> 100,–,–,–,> 100,–,> 100,–,> 100,> 100,> 100,> 100,–
C(=Nc1ccc(-c2nc3ccccc3[nH]2)cc1)c1ccc[nH]1,20.1,> 100,> 100,> 100,> 100,> 100,> 100,> 100,> 100,> 100,–,> 100,> 100,> 100,> 100,> 100,> 100,> 100,> 100,> 100
Brc1ccc2c3c1[C@H]1O[C@H]1c1cccc(c1-3)[C@@H]1O[C@H]21,–,37.7,31.6,38.7,37.4,29.4,34.2,37.2,49.4,38.3,40.6,32.5,–,32.1,26.8,41.6,28.8,36.8,33,59.5
O=C(O)C[C@@H]1[C@@H](O)[C@@H](O)CN2C(=O)c3ccccc3[C@H]12,–,> 100,> 100,> 100,> 100,> 100,> 100,> 100,> 100,> 100,> 100,> 100,> 100,> 100,> 100,> 100,> 100,> 100,> 100,–
CCOC(=O)c1cc(I)c(-c2cc(C)no2)n1C,74.5,> 100,54.7,> 100,> 100,> 100,> 100,> 100,> 100,> 100,> 100,> 100,–,> 100,> 100,> 100,75,> 100,> 100,–
CCCCCCNC(=O)CCC(NC(=O)c1ccc(N(C)Cc2cnc3nc(N)nc(N)c3n2)cc1)C(=O)NCCCCCC (configuration not stated),–,> 100,> 100,> 100,> 100,> 100,> 100,> 100,> 100,> 100,> 100,> 100,97.2,> 100,> 100,> 100,> 100,> 100,–,–
CN(CCO)CCCC1COc2ccccc2O1 (configuration not stated),> 100,> 100,> 100,> 100,> 100,–,> 100,> 100,> 100,> 100,–,> 100,> 100,> 100,–,–,> 100,45.4,> 100,–
COc1cc(C2c3cc4c(cc3OC(Nc3ccccc3)C2C)OCO4)cc(OC)c1O (configuration not stated),4.34,23.8,> 100,33.5,20.2,1.95,34,26.2,19.2,33.5,19.3,23,48,25.8,> 100,8.59,48.2,39.4,21.6,–
CCOP(=O)(OCC)C(c1ccccc1)N(C(=O)NC(F)(F)F)c1cccc(F)c1 (configuration not stated),> 100,> 100,> 100,> 100,> 100,> 100,> 100,–,> 100,> 100,> 100,–,> 100,> 100,–,–,–,> 100,> 100,> 100
